Measurements from PubChem BioAssay (NCI).
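Protocol summary: plate cells (96-well), add compound at 5 concentrations, incubate 48 h, interpolate endpoints linearly. TGI marks complete inhibition of growth.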

Legend:
Experiment in all cases: NCI tumour cell line growth inhibition, 48 h
KM12 colon = tested on: KM12 colon
SNB-19 CNS = tested on: SNB-19 CNS
EKVX NSCLC = tested on: EKVX NSCLC
OVCAR-4 ovarian = tested on: OVCAR-4 ovarian
HCT-116 colon = tested on: HCT-116 colon
SNB-78 CNS = tested on: SNB-78 CNS
SK-MEL-28 melanoma = tested on: SK-MEL-28 melanoma
DMS 273 small cell lung = tested on: DMS 273 small cell lung
UACC-257 melanoma = tested on: UACC-257 melanoma
DMS 114 small cell lung = tested on: DMS 114 small cell lung
COLO 205 colon = tested on: COLO 205 colon
LOX IMVI melanoma = tested on: LOX IMVI melanoma
NCI-H522 lung = tested on: NCI-H522 lung
P388 leukemia = tested on: P388 leukemia
SW-620 colon = tested on: SW-620 colon
OVCAR-8 ovarian = tested on: OVCAR-8 ovarian
HOP-62 NSCLC = tested on: HOP-62 NSCLC
SK-MEL-5 melanoma = tested on: SK-MEL-5 melanoma
SK-OV-3 ovarian = tested on: SK-OV-3 ovarian
DLD-1 colon = tested on: DLD-1 colon
A498 renal = tested on: A498 renal
SF-539 CNS = tested on: SF-539 CNS
SK-MEL-2 melanoma = tested on: SK-MEL-2 melanoma
CAKI-1 renal = tested on: CAKI-1 renal
K-562 leukemia = tested on: K-562 leukemia
HCC-2998 colon = tested on: HCC-2998 colon
M19-MEL melanoma = tested on: M19-MEL melanoma
U251 CNS = tested on: U251 CNS
UACC-62 melanoma = tested on: UACC-62 melanoma
XF 498 CNS = tested on: XF 498 CNS
OVCAR-5 ovarian = tested on: OVCAR-5 ovarian
RXF 393 renal = tested on: RXF 393 renal
MALME-3M melanoma = tested on: MALME-3M melanoma
P388/ADR leukemia = tested on: P388/ADR leukemia
HOP-18 NSCLC = tested on: HOP-18 NSCLC
UO-31 renal = tested on: UO-31 renal
A549 NSCLC = tested on: A549 NSCLC
KM20L2 colon = tested on: KM20L2 colon
SF-268 CNS = tested on: SF-268 CNS
HCT-15 colon = tested on: HCT-15 colon
NCI-H460 lung = tested on: NCI-H460 lung
NCI-H23 lung = tested on: NCI-H23 lung
NCI/ADR-RES ovarian = tested on: NCI/ADR-RES ovarian
SN12C renal = tested on: SN12C renal
OVCAR-3 ovarian = tested on: OVCAR-3 ovarian
MOLT-4 leukemia = tested on: MOLT-4 leukemia
IGROV1 ovarian = tested on: IGROV1 ovarian
HOP-92 NSCLC = tested on: HOP-92 NSCLC
MCF7 breast = tested on: MCF7 breast
SF-295 CNS = tested on: SF-295 CNS
RPMI-8226 leukemia = tested on: RPMI-8226 leukemia
SNB-75 CNS = tested on: SNB-75 CNS
HL-60(TB) leukemia = tested on: HL-60(TB) leukemia
SN12K1 renal = tested on: SN12K1 renal
HT29 colon = tested on: HT29 colon
CCRF-CEM leukemia = tested on: CCRF-CEM leukemia
786-0 renal = tested on: 786-0 renal
TK-10 renal = tested on: TK-10 renal
ACHN renal = tested on: ACHN renal
NCI-H226 lung = tested on: NCI-H226 lung
M14 melanoma = tested on: M14 melanoma
RXF-631 renal = tested on: RXF-631 renal
LXFL 529 NSCLC = tested on: LXFL 529 NSCLC
SR leukemia = tested on: SR leukemia

CN(C)C(=O)N(CCCl)N=O
TGI (KM12 colon): > 100 µM | TGI (SNB-19 CNS): > 100 µM | TGI (EKVX NSCLC): > 100 µM | TGI (OVCAR-4 ovarian): > 100 µM | TGI (HCT-116 colon): > 100 µM | TGI (SNB-78 CNS): > 100 µM | TGI (SK-MEL-28 melanoma): > 100 µM | TGI (DMS 273 small cell lung): > 100 µM | TGI (UACC-257 melanoma): > 100 µM | TGI (DMS 114 small cell lung): > 100 µM | TGI (COLO 205 colon): > 100 µM | TGI (LOX IMVI melanoma): > 100 µM | TGI (NCI-H522 lung): > 100 µM | TGI (P388 leukemia): > 100 µM | TGI (SW-620 colon): > 100 µM | TGI (OVCAR-8 ovarian): > 100 µM | TGI (HOP-62 NSCLC): > 100 µM | TGI (SK-MEL-5 melanoma): > 100 µM | TGI (SK-OV-3 ovarian): > 100 µM | TGI (DLD-1 colon): > 100 µM | TGI (A498 renal): > 100 µM | TGI (SF-539 CNS): > 100 µM | TGI (SK-MEL-2 melanoma): > 100 µM | TGI (CAKI-1 renal): > 100 µM | TGI (K-562 leukemia): > 100 µM | TGI (HCC-2998 colon): > 100 µM | TGI (M19-MEL melanoma): > 100 µM | TGI (U251 CNS): > 100 µM | TGI (UACC-62 melanoma): > 100 µM | TGI (XF 498 CNS): > 100 µM | TGI (OVCAR-5 ovarian): > 100 µM | TGI (RXF 393 renal): > 100 µM | TGI (MALME-3M melanoma): > 100 µM | TGI (P388/ADR leukemia): > 100 µM | TGI (HOP-18 NSCLC): > 100 µM | TGI (UO-31 renal): > 100 µM | TGI (A549 NSCLC): > 100 µM | TGI (KM20L2 colon): > 100 µM | TGI (SF-268 CNS): > 100 µM | TGI (HCT-15 colon): > 100 µM | TGI (NCI-H460 lung): > 100 µM | TGI (NCI-H23 lung): > 100 µM | TGI (NCI/ADR-RES ovarian): > 100 µM | TGI (SN12C renal): > 100 µM | TGI (OVCAR-3 ovarian): > 100 µM | TGI (MOLT-4 leukemia): > 100 µM | TGI (IGROV1 ovarian): > 100 µM | TGI (HOP-92 NSCLC): > 100 µM | TGI (MCF7 breast): > 100 µM | TGI (SF-295 CNS): > 100 µM | TGI (RPMI-8226 leukemia): > 100 µM | TGI (SNB-75 CNS): > 100 µM | TGI (HL-60(TB) leukemia): > 100 µM | TGI (SN12K1 renal): > 100 µM | TGI (HT29 colon): > 100 µM | TGI (CCRF-CEM leukemia): > 100 µM

O=c1[nH]c2nc3ccccc3n2c(O)c1-c1ccccc1
TGI (786-0 renal): > 100 µM | TGI (KM12 colon): > 100 µM | TGI (SNB-19 CNS): > 100 µM | TGI (EKVX NSCLC): > 100 µM | TGI (OVCAR-4 ovarian): > 100 µM | TGI (HCT-116 colon): > 100 µM | TGI (SNB-78 CNS): > 100 µM | TGI (SK-MEL-28 melanoma): > 100 µM | TGI (DMS 273 small cell lung): > 100 µM | TGI (UACC-257 melanoma): > 100 µM | TGI (DMS 114 small cell lung): > 100 µM | TGI (TK-10 renal): > 100 µM | TGI (COLO 205 colon): > 100 µM | TGI (LOX IMVI melanoma): > 100 µM | TGI (NCI-H522 lung): > 100 µM | TGI (SW-620 colon): > 100 µM | TGI (OVCAR-8 ovarian): > 100 µM | TGI (HOP-62 NSCLC): > 100 µM | TGI (SK-MEL-5 melanoma): > 100 µM | TGI (SK-OV-3 ovarian): > 100 µM | TGI (DLD-1 colon): > 100 µM | TGI (ACHN renal): > 100 µM | TGI (A498 renal): > 100 µM | TGI (SF-539 CNS): > 100 µM | TGI (SK-MEL-2 melanoma): > 100 µM | TGI (NCI-H226 lung): > 100 µM | TGI (CAKI-1 renal): > 100 µM | TGI (K-562 leukemia): > 100 µM | TGI (HCC-2998 colon): > 100 µM | TGI (M19-MEL melanoma): > 100 µM | TGI (U251 CNS): > 100 µM | TGI (UACC-62 melanoma): > 100 µM | TGI (XF 498 CNS): > 100 µM | TGI (OVCAR-5 ovarian): > 100 µM | TGI (RXF 393 renal): > 100 µM | TGI (MALME-3M melanoma): > 100 µM | TGI (M14 melanoma): > 100 µM | TGI (HOP-18 NSCLC): > 100 µM | TGI (UO-31 renal): > 100 µM | TGI (RXF-631 renal): > 100 µM | TGI (A549 NSCLC): > 100 µM | TGI (KM20L2 colon): > 100 µM | TGI (SF-268 CNS): > 100 µM | TGI (HCT-15 colon): > 100 µM | TGI (NCI-H460 lung): > 100 µM | TGI (NCI-H23 lung): > 100 µM | TGI (SN12C renal): > 100 µM | TGI (OVCAR-3 ovarian): > 100 µM | TGI (MOLT-4 leukemia): > 100 µM | TGI (IGROV1 ovarian): > 100 µM | TGI (HOP-92 NSCLC): > 100 µM | TGI (SF-295 CNS): > 100 µM | TGI (RPMI-8226 leukemia): > 100 µM | TGI (LXFL 529 NSCLC): > 100 µM | TGI (SNB-75 CNS): > 100 µM | TGI (HL-60(TB) leukemia): > 100 µM | TGI (SR leukemia): > 100 µM | TGI (HT29 colon): > 100 µM | TGI (CCRF-CEM leukemia): > 100 µM

NC1CCCCC1
TGI (KM12 colon): > 562 µM | TGI (SNB-19 CNS): > 562 µM | TGI (EKVX NSCLC): > 562 µM | TGI (OVCAR-4 ovarian): > 562 µM | TGI (HCT-116 colon): > 562 µM | TGI (SNB-78 CNS): > 562 µM | TGI (SK-MEL-28 melanoma): > 562 µM | TGI (DMS 273 small cell lung): > 562 µM | TGI (UACC-257 melanoma): > 562 µM | TGI (DMS 114 small cell lung): > 56.2 µM | TGI (COLO 205 colon): > 56.2 µM | TGI (LOX IMVI melanoma): > 562 µM | TGI (NCI-H522 lung): > 562 µM | TGI (P388 leukemia): 243 µM | TGI (SW-620 colon): > 562 µM | TGI (OVCAR-8 ovarian): > 562 µM | TGI (HOP-62 NSCLC): > 562 µM | TGI (SK-MEL-5 melanoma): > 562 µM | TGI (DLD-1 colon): > 562 µM | TGI (A498 renal): > 562 µM | TGI (SF-539 CNS): 418 µM | TGI (SK-MEL-2 melanoma): > 562 µM | TGI (K-562 leukemia): > 562 µM | TGI (HCC-2998 colon): > 562 µM | TGI (M19-MEL melanoma): > 562 µM | TGI (U251 CNS): > 562 µM | TGI (UACC-62 melanoma): > 562 µM | TGI (OVCAR-5 ovarian): > 562 µM | TGI (RXF 393 renal): > 562 µM | TGI (MALME-3M melanoma): > 562 µM | TGI (HOP-18 NSCLC): < 0.0562 µM | TGI (A549 NSCLC): > 562 µM | TGI (KM20L2 colon): > 562 µM | TGI (SF-268 CNS): > 562 µM | TGI (HCT-15 colon): > 562 µM | TGI (NCI-H460 lung): > 562 µM | TGI (NCI-H23 lung): > 562 µM | TGI (NCI/ADR-RES ovarian): > 562 µM | TGI (SN12C renal): > 562 µM | TGI (OVCAR-3 ovarian): > 562 µM | TGI (MOLT-4 leukemia): > 562 µM | TGI (IGROV1 ovarian): > 562 µM | TGI (HOP-92 NSCLC): > 562 µM | TGI (MCF7 breast): > 562 µM | TGI (RPMI-8226 leukemia): > 562 µM | TGI (SNB-75 CNS): > 562 µM | TGI (HL-60(TB) leukemia): 380 µM | TGI (SN12K1 renal): > 562 µM | TGI (HT29 colon): > 562 µM | TGI (CCRF-CEM leukemia): > 562 µM
